Drawing on paper PMC6812009, “Covalent Aurora A regulation by the metabolic integrator coenzyme A” (Redox Biology, 2019), this text covers activity and inhibition for three compounds.

Common to all, as to test: Kinase profiling screen (radioactive filter-binding assay)
What all share (assay type): biochemical

In assay [1] the target is S6K1 (Homo sapiens, UniProt P23443). The conditions noted are these: 100 μM compound, 20 μM ATP; read-out: Kinase activity, % of activity in the absence of inhibitor. A digest of the protocol: (§1)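 Panel of 117 recombinant kinases; CoA, dpCoA, ADP each at 100 μM final, duplicates; model substrates, ATP at optimal level.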
Sequence of S6K1 (P23443 whole entry): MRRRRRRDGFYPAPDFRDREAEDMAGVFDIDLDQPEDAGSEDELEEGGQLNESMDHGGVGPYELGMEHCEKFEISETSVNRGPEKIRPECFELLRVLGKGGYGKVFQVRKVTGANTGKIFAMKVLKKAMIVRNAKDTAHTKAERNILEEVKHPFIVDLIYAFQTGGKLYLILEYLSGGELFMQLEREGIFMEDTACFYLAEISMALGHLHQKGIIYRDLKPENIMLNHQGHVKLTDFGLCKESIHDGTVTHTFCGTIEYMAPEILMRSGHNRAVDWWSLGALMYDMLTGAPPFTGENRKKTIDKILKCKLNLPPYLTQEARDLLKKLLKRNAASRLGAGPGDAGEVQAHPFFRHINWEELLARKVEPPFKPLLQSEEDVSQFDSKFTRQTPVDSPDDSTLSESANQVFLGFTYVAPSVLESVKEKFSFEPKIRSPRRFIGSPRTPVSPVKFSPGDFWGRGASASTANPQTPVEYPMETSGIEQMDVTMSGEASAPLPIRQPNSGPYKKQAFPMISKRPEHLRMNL
In assay [2] the target is Aurora B (Homo sapiens, UniProt Q96GD4). The following applies: for activity at 100 µM: 100 μM compound, 20 μM ATP, read-out: Kinase activity, % of activity in the absence of inhibitor. In outline:
as §1

The target in assay [3] is ERK2 (Homo sapiens, UniProt P28482). The following applies: 100 μM compound, 20 μM ATP; read-out: Kinase activity, % of activity in the absence of inhibitor. A digest of the protocol: as §1
Sequence of ERK2 (P28482 whole entry): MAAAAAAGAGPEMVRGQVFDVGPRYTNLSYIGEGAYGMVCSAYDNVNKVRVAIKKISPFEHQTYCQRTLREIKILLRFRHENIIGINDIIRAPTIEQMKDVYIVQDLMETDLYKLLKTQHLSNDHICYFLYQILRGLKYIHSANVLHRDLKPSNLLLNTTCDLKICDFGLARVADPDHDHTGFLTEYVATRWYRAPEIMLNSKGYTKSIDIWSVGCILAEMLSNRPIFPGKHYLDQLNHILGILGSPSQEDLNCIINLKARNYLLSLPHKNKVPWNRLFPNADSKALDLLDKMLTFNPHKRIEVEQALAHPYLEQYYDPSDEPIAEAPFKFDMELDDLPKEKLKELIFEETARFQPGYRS
Assay [4] concerns the target MARK1 (Homo sapiens, UniProt Q9P0L2). The following applies: 100 μM compound, 20 μM ATP; read-out: Kinase activity, % of activity in the absence of inhibitor. A digest of the protocol: as §1
In assay [5] the target is PAK6 (Homo sapiens, UniProt Q9NQU5). The following applies: 100 μM compound, 20 μM ATP; read-out: Kinase activity, % of activity in the absence of inhibitor. In outline:
as §1

Assay [6] has as its target T1, PKD1 (Homo sapiens, UniProt Q15139).
T1 sequence (Q15139 1-912): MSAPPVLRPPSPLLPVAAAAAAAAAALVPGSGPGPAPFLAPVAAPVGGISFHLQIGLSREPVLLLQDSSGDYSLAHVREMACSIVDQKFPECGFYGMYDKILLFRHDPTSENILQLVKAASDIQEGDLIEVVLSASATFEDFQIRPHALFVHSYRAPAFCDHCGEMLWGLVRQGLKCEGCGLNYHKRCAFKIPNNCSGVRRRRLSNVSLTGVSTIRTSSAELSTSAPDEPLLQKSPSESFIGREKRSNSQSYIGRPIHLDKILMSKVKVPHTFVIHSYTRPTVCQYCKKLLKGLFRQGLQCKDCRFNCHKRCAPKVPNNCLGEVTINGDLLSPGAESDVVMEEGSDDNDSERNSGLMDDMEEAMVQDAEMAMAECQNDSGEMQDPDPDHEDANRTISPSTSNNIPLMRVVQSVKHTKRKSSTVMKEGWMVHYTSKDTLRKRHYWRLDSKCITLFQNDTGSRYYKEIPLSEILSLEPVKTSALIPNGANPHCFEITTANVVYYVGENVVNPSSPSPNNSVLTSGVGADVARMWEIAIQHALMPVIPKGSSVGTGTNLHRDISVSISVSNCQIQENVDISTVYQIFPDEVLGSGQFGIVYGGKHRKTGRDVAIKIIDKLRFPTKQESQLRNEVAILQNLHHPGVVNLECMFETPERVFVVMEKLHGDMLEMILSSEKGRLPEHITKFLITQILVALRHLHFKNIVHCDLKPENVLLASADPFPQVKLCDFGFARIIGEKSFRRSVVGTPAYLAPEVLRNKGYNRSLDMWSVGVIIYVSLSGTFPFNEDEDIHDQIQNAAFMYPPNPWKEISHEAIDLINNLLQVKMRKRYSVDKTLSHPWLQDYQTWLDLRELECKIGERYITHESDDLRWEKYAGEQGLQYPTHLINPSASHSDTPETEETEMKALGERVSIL
The following applies: 100 μM compound, 50 μM ATP; read-out: Kinase activity, % of activity in the absence of inhibitor. In outline:
as §1

In assay [7] the target is p38β MAPK (Homo sapiens, UniProt Q15759). The conditions noted are these: 100 μM compound, 20 μM ATP; read-out: Kinase activity, % of activity in the absence of inhibitor. A digest of the protocol:
as §1

Assay [8] concerns the target T2, LKB1 (Homo sapiens, UniProt Q15831).
T2 sequence (Q15831 1-433): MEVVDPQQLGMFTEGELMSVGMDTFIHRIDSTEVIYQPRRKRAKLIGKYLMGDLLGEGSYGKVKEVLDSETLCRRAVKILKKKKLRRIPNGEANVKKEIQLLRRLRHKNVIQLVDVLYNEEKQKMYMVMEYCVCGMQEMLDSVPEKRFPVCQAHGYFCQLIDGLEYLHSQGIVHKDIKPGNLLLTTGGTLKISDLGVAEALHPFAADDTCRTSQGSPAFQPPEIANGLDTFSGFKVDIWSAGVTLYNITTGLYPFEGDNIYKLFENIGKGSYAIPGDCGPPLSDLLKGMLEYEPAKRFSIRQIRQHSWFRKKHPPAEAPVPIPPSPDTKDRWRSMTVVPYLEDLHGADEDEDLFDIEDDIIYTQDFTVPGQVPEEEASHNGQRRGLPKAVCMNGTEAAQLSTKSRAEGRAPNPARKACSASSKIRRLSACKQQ
T2 sequence (Q7RTN6 1-431 partner): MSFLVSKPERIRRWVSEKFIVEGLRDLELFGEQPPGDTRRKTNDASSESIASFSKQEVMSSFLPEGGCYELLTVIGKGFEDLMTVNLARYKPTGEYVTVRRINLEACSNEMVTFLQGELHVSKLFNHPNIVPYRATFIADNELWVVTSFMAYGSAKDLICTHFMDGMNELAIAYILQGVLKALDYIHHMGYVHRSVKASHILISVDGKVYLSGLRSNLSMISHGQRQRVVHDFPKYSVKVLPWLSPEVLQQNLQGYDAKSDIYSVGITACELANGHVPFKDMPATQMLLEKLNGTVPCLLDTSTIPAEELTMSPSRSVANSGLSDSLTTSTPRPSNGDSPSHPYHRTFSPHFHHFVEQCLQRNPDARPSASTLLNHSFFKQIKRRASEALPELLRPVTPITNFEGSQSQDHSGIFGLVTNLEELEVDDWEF
T2 sequence (Q9Y376 1-341 partner): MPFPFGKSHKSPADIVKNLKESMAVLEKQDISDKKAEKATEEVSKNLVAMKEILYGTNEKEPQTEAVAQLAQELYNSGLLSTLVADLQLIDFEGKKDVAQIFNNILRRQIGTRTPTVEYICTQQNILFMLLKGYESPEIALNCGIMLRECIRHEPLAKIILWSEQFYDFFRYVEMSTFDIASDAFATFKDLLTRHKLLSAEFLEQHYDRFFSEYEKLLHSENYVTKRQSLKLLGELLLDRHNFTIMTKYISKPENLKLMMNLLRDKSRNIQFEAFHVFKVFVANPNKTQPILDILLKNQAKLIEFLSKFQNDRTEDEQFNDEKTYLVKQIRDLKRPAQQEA
The conditions noted are these: 100 μM compound, 20 μM ATP; read-out: Kinase activity, % of activity in the absence of inhibitor. A digest of the protocol: as §1

Sequence of Aurora B (Q96GD4 whole entry): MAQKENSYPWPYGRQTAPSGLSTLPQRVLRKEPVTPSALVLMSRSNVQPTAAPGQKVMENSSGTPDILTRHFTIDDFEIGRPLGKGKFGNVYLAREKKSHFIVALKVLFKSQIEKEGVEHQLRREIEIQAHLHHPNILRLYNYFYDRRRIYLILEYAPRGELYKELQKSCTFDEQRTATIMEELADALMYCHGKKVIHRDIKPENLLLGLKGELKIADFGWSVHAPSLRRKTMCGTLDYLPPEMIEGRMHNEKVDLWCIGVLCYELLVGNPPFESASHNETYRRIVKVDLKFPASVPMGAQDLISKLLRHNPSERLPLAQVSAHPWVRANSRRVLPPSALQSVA
Sequence of PAK6 (Q9NQU5 whole entry): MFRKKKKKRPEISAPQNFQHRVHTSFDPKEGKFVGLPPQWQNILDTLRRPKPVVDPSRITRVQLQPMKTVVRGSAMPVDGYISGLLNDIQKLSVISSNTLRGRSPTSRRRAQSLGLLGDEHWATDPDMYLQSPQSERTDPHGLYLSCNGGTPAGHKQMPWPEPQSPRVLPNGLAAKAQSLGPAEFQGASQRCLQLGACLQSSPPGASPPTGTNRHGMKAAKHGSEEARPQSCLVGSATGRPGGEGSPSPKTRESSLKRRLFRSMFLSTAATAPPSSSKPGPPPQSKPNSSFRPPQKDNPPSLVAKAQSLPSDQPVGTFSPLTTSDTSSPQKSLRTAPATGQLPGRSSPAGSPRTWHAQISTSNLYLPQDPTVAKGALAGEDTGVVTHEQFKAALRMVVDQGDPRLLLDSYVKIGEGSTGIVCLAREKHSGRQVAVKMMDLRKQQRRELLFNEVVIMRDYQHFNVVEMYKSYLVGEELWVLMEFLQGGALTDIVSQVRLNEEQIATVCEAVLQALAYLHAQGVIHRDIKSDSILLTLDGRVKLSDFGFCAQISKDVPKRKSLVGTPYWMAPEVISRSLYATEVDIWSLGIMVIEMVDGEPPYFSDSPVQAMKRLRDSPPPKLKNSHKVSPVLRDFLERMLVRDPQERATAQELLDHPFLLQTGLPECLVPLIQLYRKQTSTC
Sequence of p38β MAPK (Q15759 whole entry): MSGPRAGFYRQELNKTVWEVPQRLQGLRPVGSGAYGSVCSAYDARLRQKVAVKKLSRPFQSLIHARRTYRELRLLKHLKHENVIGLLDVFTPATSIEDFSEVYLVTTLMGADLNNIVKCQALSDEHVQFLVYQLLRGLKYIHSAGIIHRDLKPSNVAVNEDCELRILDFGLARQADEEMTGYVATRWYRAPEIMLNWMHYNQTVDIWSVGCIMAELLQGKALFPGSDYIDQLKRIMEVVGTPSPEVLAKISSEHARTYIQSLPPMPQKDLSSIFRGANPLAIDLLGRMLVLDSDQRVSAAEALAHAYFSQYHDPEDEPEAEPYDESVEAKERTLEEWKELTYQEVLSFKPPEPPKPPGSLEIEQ
Sequence of MARK1 (Q9P0L2 whole entry): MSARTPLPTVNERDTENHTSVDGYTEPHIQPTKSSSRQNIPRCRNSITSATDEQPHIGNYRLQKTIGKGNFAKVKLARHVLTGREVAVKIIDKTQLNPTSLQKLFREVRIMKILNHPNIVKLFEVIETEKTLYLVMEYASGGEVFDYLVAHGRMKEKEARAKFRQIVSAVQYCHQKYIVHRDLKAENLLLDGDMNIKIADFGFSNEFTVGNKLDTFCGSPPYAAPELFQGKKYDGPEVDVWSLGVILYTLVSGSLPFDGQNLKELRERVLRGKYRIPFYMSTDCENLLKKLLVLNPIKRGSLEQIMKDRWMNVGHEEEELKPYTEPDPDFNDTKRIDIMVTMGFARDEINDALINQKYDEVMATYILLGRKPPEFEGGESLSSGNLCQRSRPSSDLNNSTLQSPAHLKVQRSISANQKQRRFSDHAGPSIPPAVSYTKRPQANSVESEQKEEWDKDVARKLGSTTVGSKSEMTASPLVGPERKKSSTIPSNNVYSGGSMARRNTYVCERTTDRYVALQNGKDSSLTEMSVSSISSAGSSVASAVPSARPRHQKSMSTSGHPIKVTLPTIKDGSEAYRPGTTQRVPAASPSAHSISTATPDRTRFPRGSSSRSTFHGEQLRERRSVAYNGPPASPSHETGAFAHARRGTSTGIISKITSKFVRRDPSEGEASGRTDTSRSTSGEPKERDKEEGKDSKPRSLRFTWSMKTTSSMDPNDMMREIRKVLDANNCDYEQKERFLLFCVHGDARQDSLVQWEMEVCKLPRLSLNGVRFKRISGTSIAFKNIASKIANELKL

For `Nc1ncnc2c1ncn2C1OC(COP(=O)(O)OP(=O)(O)O)C(O)C1O` (stereo not shown) [ADP], the activity at 100 µM in assay [1] amounted to 35.5%; in assay [2], 47.8%; in assay [3], 54.4%; in assay [4], 28.1%; in assay [5] it was 78.4%; in assay [6], 56.2%. Further, the results for the activity at 100 µM in assay [7] and in assay [8] were 51.1% and 71%, respectively.
In the case of `CC(C)(COP(=O)(O)OP(=O)(O)OC[C@H]1O[C@@H](n2cnc3c(N)ncnc32)[C@H](O)[C@@H]1OP(=O)(O)O)[C@@H](O)C(=O)NCCC(=O)NCCS` [CoA, Coenzyme A], the activity at 100 µM in assay [1] is 89.1%; in assay [2] it was 54.3%; in assay [3] it was 120%; in assay [4], 95.3%; in assay [5], 98.4%; in assay [6] it was 112%. Besides, the activity at 100 µM in assay [7] was 160%; in assay [8] it was 103%. The inhibition at 100 µM in assay [2] (at 100 μM compound) came out at 46%.
Regarding `CC(C)(COP(=O)(O)OP(=O)(O)OCC1OC(n2cnc3c(N)ncnc32)C(O)C1O)C(O)C(=O)NCCC(=O)NCCS` (stereo not shown) [dpCoA, dephospho-CoA], the activity at 100 µM in assay [1] was determined as 30.5%; in assay [2], 55.1%; in assay [3], 81.7%; in assay [4], 68%; in assay [5] it was 101%; in assay [6], 104%. Also, the activity at 100 µM in assay [7] is 94.5%; in assay [8], 81.1%.
